{"source": "paper PMC7076255", "about": "“A Redox-Sensitive Thiol in Wis1 Modulates the Fission Yeast Mitogen-Activated Protein Kinase Response to H2O2 and Is the Target of a Small Molecule” (Molecular and Cellular Biology, 2020)", "target": "T1, Wis1 (Schizosaccharomyces pombe, UniProt P33886)", "T1 construct": "full length, N-terminal HA3 tag (JJS6, thermal shift) or N-terminal HA and C-terminal His6 tags (JJS7, kinase assay); nmt1 promoter at the chromosomal locus; expressed in S. pombe", "T1 sequence (P33886 1-605)": "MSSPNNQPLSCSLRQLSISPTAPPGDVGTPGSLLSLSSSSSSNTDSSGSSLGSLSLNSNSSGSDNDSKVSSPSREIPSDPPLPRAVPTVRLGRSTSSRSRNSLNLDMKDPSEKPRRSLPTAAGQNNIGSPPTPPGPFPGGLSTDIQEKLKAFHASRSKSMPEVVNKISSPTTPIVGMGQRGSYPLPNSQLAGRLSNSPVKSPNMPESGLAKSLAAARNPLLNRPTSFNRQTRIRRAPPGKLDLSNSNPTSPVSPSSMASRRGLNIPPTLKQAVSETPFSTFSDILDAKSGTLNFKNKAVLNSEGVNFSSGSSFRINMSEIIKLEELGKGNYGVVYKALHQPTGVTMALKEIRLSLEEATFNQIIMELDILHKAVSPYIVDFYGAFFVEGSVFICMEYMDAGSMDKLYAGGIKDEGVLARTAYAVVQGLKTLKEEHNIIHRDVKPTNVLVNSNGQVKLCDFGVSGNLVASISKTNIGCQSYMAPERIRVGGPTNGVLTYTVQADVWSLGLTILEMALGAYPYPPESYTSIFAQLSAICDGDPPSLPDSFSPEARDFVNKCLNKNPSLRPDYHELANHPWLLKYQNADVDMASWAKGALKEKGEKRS", "assay": "thermal shift in crude lysate, Western blot of soluble HA-Wis1", "format": "biochemical"}
{"smiles": "CCOc1cccc(-c2cc(=O)c3ccccc3o2)c1N", "note": "[INR119]", "values": [{"measurement": "ΔTm at 3 µM", "value": 2, "unit": "°C"}]}
